Data on one molecule can be found in patent EP0699074B1, “THROMBIN INHIBITORS” (Merck & Co., Inc., priority 1993, dated 1994).

This experiment has as its target human α-thrombin (Homo sapiens, UniProt P00734). The note with it: 4-4 (L at Acg center, later eluting HPLC peak) compared with its diastereomer 4-3 (D). How it is done: Trypsin assays also contained 1 mM CaCl2.
Concentrations of stock solutions of Z-GPR-afc were determined from measurements of absorbance at 380 nm of the 7-amino-4-trifluoromethyl coumarin produced upon complete hydrolysis of an aliquot of the stock solution by thrombin.
Times required to achieve equilibration between enzyme and inhibitor were determined in control experiments. Initial velocities of product formation in the absence (Vo) or presence of inhibitor (Vi) were measured.

The structures appear in SMILES notation.

As for `CNC(=O)C(=O)[C@@H](NC(=O)[C@@H]1CCCN1C(=O)[C@@H](Cc1ccccc1)NC)[C@H]1CC[C@H](N)CC1` [4-4, H-NMe-D-Phe-Pro-t-L-AcgΨ[COCO]-NHMe], the “thrombin inhibitor potency (comparison of the two isomers)” value is “more potent thrombin inhibitor”.
